Reference: ChEMBL document CHEMBL1140040, “Synthesis and cytotoxic activity of some novel polycyclic gamma-butyrolactones” (Bioorg Med Chem Lett, 2008)

Key:
[1] = tested on: HCT-15; assay: Cytotoxicity against human HCT15 cells assessed as age growth inhibition at 100 uM after 48 hrs by sulforhodamine B assay; format: functional; settings: HCT-15, 48 h, read-out: GI
[2] = tested on: HOP-62; assay: Cytotoxicity against human HOP62 cells assessed as age growth inhibition at 50 uM after 48 hrs by sulforhodamine B assay; format: functional; settings: HOP-62, 48 h, read-out: GI
[3] = tested on: SK-OV-3; assay: Cytotoxicity against human SKOV3 cells assessed as age growth inhibition at 50 uM after 48 hrs by sulforhodamine B assay; format: functional; settings: SK-OV-3, 48 h, read-out: GI
[4] = tested on: SF-295; assay: Antiproliferative activity against human SF295 cells after 48 hrs by sulforhodamine B assay; format: functional, cell-based; settings: SF-295, 48 h
[5] = tested on: HOP-62; assay: Cytotoxicity against human HOP62 cells assessed as age growth inhibition at 100 uM after 48 hrs by sulforhodamine B assay; format: functional; settings: HOP-62, 48 h, read-out: GI
[6] = tested on: HCT-15; assay: Cytotoxicity against human HCT15 cells assessed as age growth inhibition at 50 uM after 48 hrs by sulforhodamine B assay; format: functional; settings: HCT-15, 48 h, read-out: GI
[7] = tested on: IGROV-1; assay: Cytotoxicity against human IGROV1 cells assessed as age growth inhibition at 10 uM after 48 hrs by sulforhodamine B assay; format: functional; settings: IGROV-1, 48 h, read-out: GI
[8] = tested on: IGROV-1; assay: Cytotoxicity against human IGROV1 cells assessed as age growth inhibition at 100 uM after 48 hrs by sulforhodamine B assay; format: functional; settings: IGROV-1, 48 h, read-out: GI
[9] = tested on: HCT-15; assay: Antiproliferative activity against human HCT15 cells after 48 hrs by sulforhodamine B assay; format: functional, cell-based; settings: HCT-15, 48 h
[10] = tested on: SK-OV-3; assay: Cytotoxicity against human SKOV3 cells assessed as age growth inhibition at 100 uM after 48 hrs by sulforhodamine B assay; format: functional; settings: SK-OV-3, 48 h, read-out: GI
[11] = tested on: A549; assay: Cytotoxicity against human A549 cells assessed as age growth inhibition at 100 uM after 48 hrs by sulforhodamine B assay; format: functional; settings: A549, 48 h, read-out: GI
[12] = tested on: HOP-62; assay: Cytotoxicity against human HOP62 cells assessed as age growth inhibition at 10 uM after 48 hrs by sulforhodamine B assay; format: functional; settings: HOP-62, 48 h, read-out: GI
[13] = tested on: IGROV-1; assay: Antiproliferative activity against human IGROV1 cells after 48 hrs by sulforhodamine B assay; format: functional, cell-based; settings: IGROV-1, 48 h
[14] = tested on: HOP-62; assay: Antiproliferative activity against human HOP62 cells after 48 hrs by sulforhodamine B assay; format: functional, cell-based; settings: HOP-62, 48 h
[15] = tested on: COLO 205; assay: Cytotoxicity against human COLO205 cells assessed as age growth inhibition at 50 uM after 48 hrs by sulforhodamine B assay; format: functional; settings: COLO 205, 48 h, read-out: GI
[16] = tested on: A549; assay: Cytotoxicity against human A549 cells assessed as age growth inhibition at 50 uM after 48 hrs by sulforhodamine B assay; format: functional; settings: A549, 48 h, read-out: GI
[17] = tested on: SF-295; assay: Cytotoxicity against human SF295 cells assessed as age growth inhibition at 10 uM after 48 hrs by sulforhodamine B assay; format: functional; settings: SF-295, 48 h, read-out: GI
[18] = tested on: DU-145; assay: Antiproliferative activity against human DU145 cells after 48 hrs by sulforhodamine B assay; format: functional, cell-based; settings: DU-145, 48 h
[19] = tested on: SF-295; assay: Cytotoxicity against human SF295 cells assessed as age growth inhibition at 100 uM after 48 hrs by sulforhodamine B assay; format: functional; settings: SF-295, 48 h, read-out: GI
[20] = tested on: DU-145; assay: Cytotoxicity against human DU145 cells assessed as age growth inhibition at 50 uM after 48 hrs by sulforhodamine B assay; format: functional; settings: DU-145, 48 h, read-out: GI
[21] = tested on: HEp-2; assay: Cytotoxicity against human HEP2 cells assessed as age growth inhibition at 100 uM after 48 hrs by sulforhodamine B assay; format: functional; settings: HEp-2, 48 h, read-out: GI
[22] = tested on: HEp-2; assay: Cytotoxicity against human HEP2 cells assessed as age growth inhibition at 50 uM after 48 hrs by sulforhodamine B assay; format: functional; settings: HEp-2, 48 h, read-out: GI
[23] = tested on: SF-295; assay: Cytotoxicity against human SF295 cells assessed as age growth inhibition at 50 uM after 48 hrs by sulforhodamine B assay; format: functional; settings: SF-295, 48 h, read-out: GI
[24] = tested on: COLO 205; assay: Cytotoxicity against human COLO205 cells assessed as age growth inhibition at 10 uM after 48 hrs by sulforhodamine B assay; format: functional; settings: COLO 205, 48 h, read-out: GI
[25] = tested on: SK-OV-3; assay: Antiproliferative activity against human SKOV3 cells after 48 hrs by sulforhodamine B assay; format: functional, cell-based; settings: SK-OV-3, 48 h
[26] = tested on: HEp-2; assay: Cytotoxicity against human HEP2 cells assessed as age growth inhibition at 10 uM after 48 hrs by sulforhodamine B assay; format: functional; settings: HEp-2, 48 h, read-out: GI
[27] = tested on: HCT-15; assay: Cytotoxicity against human HCT15 cells assessed as age growth inhibition at 10 uM after 48 hrs by sulforhodamine B assay; format: functional; settings: HCT-15, 48 h, read-out: GI
[28] = tested on: IGROV-1; assay: Cytotoxicity against human IGROV1 cells assessed as age growth inhibition at 50 uM after 48 hrs by sulforhodamine B assay; format: functional; settings: IGROV-1, 48 h, read-out: GI
[29] = tested on: COLO 205; assay: Cytotoxicity against human COLO205 cells assessed as age growth inhibition at 100 uM after 48 hrs by sulforhodamine B assay; format: functional; settings: COLO 205, 48 h, read-out: GI
[30] = tested on: A549; assay: Antiproliferative activity against human A549 cells after 48 hrs by sulforhodamine B assay; format: functional, cell-based; settings: A549, 48 h
[31] = tested on: DU-145; assay: Cytotoxicity against human DU145 cells assessed as age growth inhibition at 100 uM after 48 hrs by sulforhodamine B assay; format: functional; settings: DU-145, 48 h, read-out: GI
[32] = tested on: HEp-2; assay: Antiproliferative activity against human HEP2 cells after 48 hrs by sulforhodamine B assay; format: functional, cell-based; settings: HEp-2, 48 h
[33] = tested on: COLO 205; assay: Antiproliferative activity against human COLO205 cells after 48 hrs by sulforhodamine B assay; format: functional, cell-based; settings: COLO 205, 48 h
[34] = tested on: DU-145; assay: Cytotoxicity against human DU145 cells assessed as age growth inhibition at 10 uM after 48 hrs by sulforhodamine B assay; format: functional; settings: DU-145, 48 h, read-out: GI
[35] = tested on: A549; assay: Cytotoxicity against human A549 cells assessed as age growth inhibition at 10 uM after 48 hrs by sulforhodamine B assay; format: functional; settings: A549, 48 h, read-out: GI
[36] = tested on: SK-OV-3; assay: Cytotoxicity against human SKOV3 cells assessed as age growth inhibition at 10 uM after 48 hrs by sulforhodamine B assay; format: functional; settings: SK-OV-3, 48 h, read-out: GI

Row | SMILES | inhibition of growth at 100 µM [1] [%] | inhibition of growth at 50 µM [2] [%] | inhibition of growth at 50 µM [3] [%] | IC50 [4] [µM] | inhibition of growth at 100 µM [5] [%] | inhibition of growth at 50 µM [6] [%] | inhibition of growth at 10 µM [7] [%] | inhibition of growth at 100 µM [8] [%] | IC50 [9] [µM] | inhibition of growth at 100 µM [10] [%] | inhibition of growth at 100 µM [11] [%] | inhibition of growth at 10 µM [12] [%] | IC50 [13] [µM] | IC50 [14] [µM] | inhibition of growth at 50 µM [15] [%] | inhibition of growth at 50 µM [16] [%] | inhibition of growth at 10 µM [17] [%] | IC50 [18] [µM] | inhibition of growth at 100 µM [19] [%] | inhibition of growth at 50 µM [20] [%] | further results
1 | CC1(C)CCC[C@@]2(C)C1=C[C@H]1C(=O)O[C@H](c3ccc(Cl)cc3)[C@H]12 | 30 | 29 | 14 | > 100 | 38 | 29 | 1 | 16 | > 100 | 24 | 20 | 27 | > 100 | > 100 | 24 | 12 | 20 | > 100 | 31 | 30 | inhibition of growth at 100 µM [21]: 18%; inhibition of growth at 50 µM [22]: 18%; inhibition of growth at 50 µM [23]: 23%; inhibition of growth at 10 µM [24]: 22%; IC50 [25]: > 100 µM; inhibition of growth at 10 µM [26]: 8%; inhibition of growth at 10 µM [27]: 9%; inhibition of growth at 50 µM [28]: 15%; inhibition of growth at 100 µM [29]: 25%; IC50 [30]: > 100 µM; inhibition of growth at 100 µM [31]: 35%; IC50 [32]: > 100 µM; IC50 [33]: > 100 µM; inhibition of growth at 10 µM [34]: 16%; inhibition of growth at 10 µM [35]: 10%; inhibition of growth at 10 µM [36]: 10%
2 | CC1(C)CCC[C@@]2(C)C1=C[C@H]1C(=O)O[C@H](c3ccc(F)cc3)[C@H]12 | 38 | 14 | 13 | > 100 | 27 | 34 | 7 | 29 | > 100 | 41 | 51 | 9 | > 100 | > 100 | 26 | 45 | 4 | > 100 | 15 | 0 | inhibition of growth at 100 µM [21]: 23%; inhibition of growth at 50 µM [22]: 13%; inhibition of growth at 50 µM [23]: 10%; inhibition of growth at 10 µM [24]: 11%; IC50 [25]: > 100 µM; inhibition of growth at 10 µM [26]: 7%; inhibition of growth at 10 µM [27]: 13%; inhibition of growth at 50 µM [28]: 20%; inhibition of growth at 100 µM [29]: 32%; IC50 [30]: 79.3 µM; inhibition of growth at 100 µM [31]: 35%; IC50 [32]: > 100 µM; IC50 [33]: > 100 µM; inhibition of growth at 10 µM [34]: 0%; inhibition of growth at 10 µM [35]: 2%; inhibition of growth at 10 µM [36]: 6%
